Laboratory results: patent publication US11590148B2, “Use of calcifediol in bariatric surgery patients” (OPKO IRELAND GLOBAL HOLDINGS, LTD., priority 2018, dated 2023)

What was measured:
Assay type in all cases: in vivo, human
[1] = tested on: patients who are candidates for Roux-en-Y Surgery; experiment: Efficacy study in Roux-en-Y surgery patients (6-month)
Experimental: The effectiveness of oral sustained-release 25-hydroxyvitamin D3 in restoring serum total 25-hydroxyvitamin D to optimal levels (>30 ng/mL) and reducing parathyroid hormone level, is examined in a 6-month study of adult male and female patients who are candidates for Roux-en-Y Surgery for weight reduction. In a controlled study, patients are treated with sustained-release 25-hydroxyvitamin D3 (softgel capsules containing 25-hydroxyvitamin D3).
A total of 60 subjects participate in this study, all of whom have serum total 25-hydroxyvitamin D levels less than 30 ng/mL at the time of enrollment and serum intact parathyroid hormone levels greater than 70 pg/mL as evidence of SHPT. All subjects receive a multivitamin therapy including calcium (up to 1,000 mg daily) and cholecalciferol (3000 IU daily) following surgery, and abstain from receiving other Vitamin D therapy and significant sun exposure. Serum total 25-hydroxyvitamin D, serum intact parathyroid hormone, serum calcium, serum phosphorus, urinary calcium, urinary phosphorus, and urinary creatinine are measured from the day of surgery, and at monthly intervals following surgery.
After 2 months, the daily calcium dosage is maintained unchanged, and the cholecalciferol supplement is discontinued, while daily administration of sustained-release 25-hydroxyvitamin D3 (softgel capsules containing 30 μg 25-hydroxyvitamin D3) is initiated and continued for four months.

[2] = tested on: patients having undergone bariatric surgery (bypass of at least the duodenum); experiment: Long-term efficacy study in Roux-en-Y surgery patients (one year, randomized, double-blind, vs cholecalciferol)
Experimental: The effectiveness of oral sustained-release 25-hydroxyvitamin D3 in restoring serum total 25-hydroxyvitamin D to optimal levels (>30 ng/mL) and increasing bone mineral density, is examined in a one year study of adult male and female patients having undergone bariatric surgery for weight reduction, wherein the surgery included bypass of at least the duodenum. In a randomized, double-blind controlled study, patients are treated with sustained-release 25-hydroxyvitamin D3 or cholecalciferol.
A total of 200 subjects participate in this study. All subjects participating in this study are aged 18 years or older, have bone mineral density T-scores between −2.0 and −4.0 as assessed by dual energy x-ray absorptiometry (DEXA), and have serum total 25-hydroxyvitamin D levels less than 30 ng/mL at the time of enrollment. All subjects receive a multivitamin therapy including calcium (up to 1,000 mg daily) and either cholecalciferol (3000 IU daily) or multiple sustained-release 25-hydroxyvitamin D3 (softgel capsules containing 30 μg 25-hydroxyvitamin D3), and abstain from receiving other Vitamin D therapy and significant sun exposure at study start and continuing through study termination.
After 3 months, the daily 25-hydroxyvitamin D3 softgel capsule dosage is maintained unchanged in patients whose serum total 25-hydroxyvitamin D is between 50 and 90 ng/mL, and increased by one capsule in patients whose serum total 25-hydroxyvitamin D is below 50 ng/mL.
Serum total 25-hydroxyvitamin D, plasma iPTH, serum calcium, serum phosphorus, urinary calcium, urinary phosphorus, and urinary creatinine are measured from the day of surgery, and at monthly intervals. Bone mineral density at four sites (total hip, femoral neck, ⅓radius, and lumbar spine) is determined at quarterly intervals by DEXA.

[3] = tested on: patients with intractable VDI having undergone bariatric surgery; experiment: Long-term efficacy study in bariatric surgery patients (52-week, ERC)
Experimental: The effectiveness of oral extended-release 25-hydroxyvitamin D3 (ERC) in raising serum total 25-hydroxyvitamin D to ≥30 ng/mL and reducing plasma iPTH by at least 30% from pre-treatement baseline is examined in a 52-week study of male and female patients aged at least 18 years, with intractable VDI, and having undergone bariatric surgery. In a randomized, double-blind controlled study, patients receive ERC or matching placebo.
Subjects are without any disease state or physical condition that might impair evaluation of safety or which would interfere with study participation, including having serum albumin ≤3.0 g/dL; and serum transaminase (alanine aminotransferase [ALT], glutamic-pyruvic transaminase [SGPT], aspartate aminotransferase [AST] or glutamic-oxaloacetic transaminase [SGOT])>2.5 times the upper limit of normal at screening.
When otherwise confirmed eligible at Visit 1, if taking more than 1,500 mg per day of elemental calcium (from diet and supplements), subjects reduce calcium use (to ≤1,500 mg per day) for the duration of the study.
When otherwise confirmed eligible at Visit 1, if taking bone metabolism therapies that may interfere with study endpoints, subjects discontinue use of these agents for the duration of the study. […]
Blood samples are collected at weekly, biweekly or monthly intervals during the pre-treatment period, the 52-week treatment period, the 6-week post-treatment FU period, and at early termination (ET), if applicable. Key parameters analyzed in the collected samples include: plasma iPTH, serum calcium (corrected for serum albumin), serum phosphorus, serum total 25-hydroxyvitamin D, serum calcifediol, serum 1,25-dihydroxyvitamin D3, and serum 24,25-dihydroxyvitamin D3 (24,25D3). Vital signs (VS), and AEs are monitored at each study visit. Other parameters monitored less frequently include brief physical examinations (PEs) and clinical laboratory tests (hematology and clinical chemistries). […] Additional parameters, including serum FGF23 and serum bone turnover markers are monitored at specified intervals. […]

[4] = months 0-2, cholecalciferol 3000 IU daily
[5] = time zero and months 1 and 2, cholecalciferol 3000 IU daily following surgery
[6] = after 12 months of treatment, DEXA
[7] = once stable dosing has been achieved

C=C1CC[C@H](O)C/C1=C/C=C1\CCC[C@]2(C)[C@@H]([C@H](C)CCCC(C)C)CC[C@@H]12 [cholecalciferol]
change in mean serum total 25-hydroxyvitamin D level following surgery [1, 4]: only a moderate increase | change in serum intact parathyroid hormone level following surgery [1, 4]: no significant difference | group mean serum intact parathyroid hormone level [1, 5]: greater than 70 pg/mL | group mean serum total 25-hydroxyvitamin D level [1, 5]: less than 30 ng/mL | change in bone mineral density [2, 6]: insignificant changes or reductions | incidence of hypocalcemia [2, 7]: occur more frequently | severity / occurrence of secondary hyperparathyroidism [2, 7]: occur more frequently | change in bone mineral density [3, 6]: insignificant changes or reductions | incidence of hypocalcemia [3, 7]: occur more frequently | severity / occurrence of secondary hyperparathyroidism [3, 7]: occur more frequently
